Assay in all cases: Agar well diffusion assay, zone of inhibition
What all share (assay type): cell-based
Settings in all cases: samples at 100 μl, beyond the well diameter of 6 mm, mean±S.D.

In assay [1] the test system is Candida albicans (RCMB 05038).
Assay [2] has as its system Aspergillus fumigatus (RCMB 02567). As for the experimental part:
(§1) Antimicrobial activity of the reduced graphene oxide (rGO) nanoparticles was determined using the agar well diffusion assay method as described by Holder and Boyce, 1994. Three bacterial strains (two gram positive and one gram negative) and one yeast strain, namely, Bacillis subtilis (RCMB 010067), Staphylococcus pneumoniae (RCMB 010011), Escherichia coli (RCMB 010052), and Aspergillus fumigatus (RCMB 02568) were used for the antimicrobial assay.
(§2) The tested organisms were sub-cultured on nutrient agar medium (Oxoid laboratories, UK) for bacteria and Sabouraud dextrose agar (Oxoid laboratories, UK) for fungi. Ampicillin and Gentamicin were used as positive control for gram positive and gram negative bacteria, respectively, while Amphotericin B was used for fungi. The plates were done in triplicates. Bacterial cultures were incubated at 37° C. for 24 h, while the fungal cultures were incubated at 25-30° C. for 3-7 days. Antimicrobial activity was determined by measuring the zone of inhibition [A. Agwa, (2000)]. Samples were tested at a concentration of 100 μl; Data are expressed in the form of (M±S.D.): mean±standard deviation; Diameter of the inhibition zone (mm) beyond the well diameter of 6 mm; NT: not tested; NA: no activity.

Assay [3] deals with Bacillis subtilis (RCMB 010068). As for the experimental part:
as §1, §2

For assay [4], the system named is Streptococcus pneumoniae (RCMB 010011). As for the experimental part:
as §1, §2

In assay [5] the test system is Escherichia coli (RCMB 010054). As for the experimental part: as §1, §2
In assay [6] the test system is Pseudomonas aeruginosa (RCMB 010045).

Turning to `C[C@@H]1[C@H](O)[C@@H](C)/C=C/C=C/C=C/C=C/C=C/C=C/C=C/[C@H](O[C@@H]2O[C@H](C)[C@@H](O)[C@H](N)[C@@H]2O)C[C@@H]2O[C@](O)(C[C@@H](O)C[C@@H](O)[C@H](O)CC[C@@H](O)C[C@@H](O)CC(=O)O[C@H]1C)C[C@H](O)[C@H]2C(=O)O` [Amphotericin B], the “Diameter of the inhibition zone” value in assay [1] came out at 22.7 ± 1.5 mm; in assay [2] it was 21.7 ± 1.5 mm.
Consider `CC1(C)S[C@@H]2[C@H](NC(=O)[C@H](N)c3ccccc3)C(=O)N2[C@H]1C(=O)O` [Ampicillin], for which the “Diameter of the inhibition zone” value in assay [3] is listed as 31.3 ± 1.5 mm; in assay [4] it was 21.0 ± 1.0 mm.
Gentamicin: the “Diameter of the inhibition zone” value in assay [5] came out at 20.3 ± 0.58 mm; in assay [6] it was 16.0 ± 1.0 mm.

These data come from patent publication US9850133B2, “Green synthesis of reduced graphene oxide using Nigella sativa seed extract” (KING SAUD UNIVERSITY, priority 2016, dated 2017).
